Laboratory results from patent publication US9670231B2, “Fused tricyclic amide compounds as multiple kinase inhibitors” (BEIGENE, LTD., priority 2013, dated 2017).

Tests used:
Assay type in all cases: biochemical
[1] = biological target: EGFR T790M/L858R kinase domain (Homo sapiens (Human), UniProt P00533, L858R/T790M); test: EGFR enzymatic assay, TR-FRET, EGFR T790M/L858R
Experimental: (§1) Compounds disclosed herein were tested against WT EGFR kinase domain (aa.669-1210, Carna Biosciences, 08-115), EGFR T790M/L858R kinase domain (aa.669-1210, Carna Biosciences, 08-510) and EGFR L858R kinase domain (aa.669-1210, Carna Biosciences, 08-502) in assays based on time-resolved fluorescence-resonance energy transfer methodology. The assay was carried out in 384-well low volume black plate in a reaction mixture containing EGFR kinases, 20 LM for EGFR WT and T790M/L858R, and 125 LM for EGFR L858R), biotin-TK substrate and 0-5 LM compounds in buffer containing 50 mM HEPES pH7.5, 10 mM MgCl2, 1 mM EGTA, 0.01% Brij-35, 2.5 mM DTT, 0.1% BSA. The kinase was incubated with the compounds disclosed herein at room temperature for 120 minutes and the reaction was initiated by the addition of ATP and biotin-TK substrate. After reaction at room temperature for 30 minutes, an equal volume of stop/detection solution was added according to the manufacture's instruction (CisBio Bioassays). The stop/detection solution contained TK-Antibody-Cryptate and Streptavidin-XL665 in buffer containing 25 mM Tris pH7.4, 400 mM KF, 50 mM EDTA, 0.01% BSA, 0.01% Triton X-100. Plates were sealed and incubated at room temperature for 1 hour, and the TR-FRET signals were read on BMG PHERAstar FS instrument. The IC50 of an inhibitor was derived from fitting the % inhibition data at each compound concentration to the four-parameter logistic equation by Graphpad Prism software.

B-Raf (V600E) = B-Raf (V600E) (Homo sapiens (Human), UniProt P15056, V600E); test: Raf IC50 assay, TR-FRET, B-Raf (V600E); details: 0.1 mM ATP; read-out: IC50 BRAF-V600E
Experimental: The enzyme was incubated with the compounds disclosed herein at room temperature for 60 minutes and the reactions were initiated by the addition of ATP and GST-MEK1. After reaction at room temperature for 60 minutes, an equal volume of stop/detection solution was added according to the manufacture's instruction (CisBio Bioassays). […] The IC50 for each compound was derived from fitting the dose-response % inhibition data to the four-parameter logistic model by Graphpad Prism software.

EGFR L858R kinase domain = EGFR L858R kinase domain (Homo sapiens (Human), UniProt P00533, L858R); test: EGFR enzymatic assay, TR-FRET, EGFR L858R
Experimental: as §1

WT EGFR kinase domain = WT EGFR kinase domain (Homo sapiens (Human), UniProt P00533); test: EGFR enzymatic assay, TR-FRET, WT EGFR
Experimental: as §1

Sequence of EGFR T790M/L858R kinase domain (P00533 669-1210 T790M/L858R): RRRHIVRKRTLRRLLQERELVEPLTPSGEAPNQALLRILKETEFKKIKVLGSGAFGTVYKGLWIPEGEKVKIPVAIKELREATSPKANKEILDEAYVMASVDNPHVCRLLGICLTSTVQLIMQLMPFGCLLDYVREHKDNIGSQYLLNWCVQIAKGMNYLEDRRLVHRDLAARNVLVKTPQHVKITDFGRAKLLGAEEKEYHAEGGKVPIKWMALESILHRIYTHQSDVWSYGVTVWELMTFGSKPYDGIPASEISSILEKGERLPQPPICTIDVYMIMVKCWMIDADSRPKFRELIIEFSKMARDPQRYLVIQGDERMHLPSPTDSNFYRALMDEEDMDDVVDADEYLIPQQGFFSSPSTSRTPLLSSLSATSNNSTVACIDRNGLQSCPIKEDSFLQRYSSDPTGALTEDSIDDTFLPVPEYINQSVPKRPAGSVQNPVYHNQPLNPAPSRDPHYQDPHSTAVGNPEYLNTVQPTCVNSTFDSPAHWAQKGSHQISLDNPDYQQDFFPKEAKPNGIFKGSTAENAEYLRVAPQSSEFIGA
Sequence of B-Raf (V600E) (P15056 whole entry V600E): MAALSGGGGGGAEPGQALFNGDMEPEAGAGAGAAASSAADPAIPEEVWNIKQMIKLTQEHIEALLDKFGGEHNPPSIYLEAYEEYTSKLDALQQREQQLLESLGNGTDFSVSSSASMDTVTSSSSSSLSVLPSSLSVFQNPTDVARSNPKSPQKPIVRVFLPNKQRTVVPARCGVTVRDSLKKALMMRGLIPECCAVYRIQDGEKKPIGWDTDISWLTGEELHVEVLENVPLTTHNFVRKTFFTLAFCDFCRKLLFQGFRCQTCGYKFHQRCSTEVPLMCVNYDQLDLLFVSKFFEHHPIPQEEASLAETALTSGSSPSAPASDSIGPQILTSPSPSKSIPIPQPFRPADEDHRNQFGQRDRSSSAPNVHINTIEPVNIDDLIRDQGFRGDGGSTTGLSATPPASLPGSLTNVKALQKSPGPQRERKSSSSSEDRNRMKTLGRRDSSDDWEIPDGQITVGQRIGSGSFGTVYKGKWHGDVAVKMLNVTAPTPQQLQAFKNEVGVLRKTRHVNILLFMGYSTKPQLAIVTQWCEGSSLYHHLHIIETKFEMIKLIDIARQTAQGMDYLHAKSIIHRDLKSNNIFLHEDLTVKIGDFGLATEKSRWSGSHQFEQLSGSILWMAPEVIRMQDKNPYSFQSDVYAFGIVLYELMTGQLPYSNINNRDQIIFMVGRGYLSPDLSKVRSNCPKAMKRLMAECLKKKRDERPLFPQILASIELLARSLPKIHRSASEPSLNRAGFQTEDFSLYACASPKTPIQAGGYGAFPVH
Sequence of WT EGFR kinase domain (P00533 669-1210): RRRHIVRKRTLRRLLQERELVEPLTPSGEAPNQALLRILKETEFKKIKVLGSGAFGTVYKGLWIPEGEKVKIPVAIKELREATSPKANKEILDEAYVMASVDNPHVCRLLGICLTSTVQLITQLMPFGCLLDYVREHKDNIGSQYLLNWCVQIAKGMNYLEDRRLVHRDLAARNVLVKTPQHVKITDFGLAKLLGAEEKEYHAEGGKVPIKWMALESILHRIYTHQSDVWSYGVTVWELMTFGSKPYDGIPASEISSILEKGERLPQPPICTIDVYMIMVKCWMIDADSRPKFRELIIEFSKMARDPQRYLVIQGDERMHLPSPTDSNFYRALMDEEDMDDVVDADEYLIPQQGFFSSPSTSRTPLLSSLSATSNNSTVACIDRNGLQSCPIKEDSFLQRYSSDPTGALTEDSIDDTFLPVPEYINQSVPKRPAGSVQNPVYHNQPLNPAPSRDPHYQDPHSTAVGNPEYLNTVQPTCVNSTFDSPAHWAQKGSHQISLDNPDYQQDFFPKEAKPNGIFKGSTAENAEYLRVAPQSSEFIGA
Sequence of EGFR L858R kinase domain (P00533 669-1210 L858R): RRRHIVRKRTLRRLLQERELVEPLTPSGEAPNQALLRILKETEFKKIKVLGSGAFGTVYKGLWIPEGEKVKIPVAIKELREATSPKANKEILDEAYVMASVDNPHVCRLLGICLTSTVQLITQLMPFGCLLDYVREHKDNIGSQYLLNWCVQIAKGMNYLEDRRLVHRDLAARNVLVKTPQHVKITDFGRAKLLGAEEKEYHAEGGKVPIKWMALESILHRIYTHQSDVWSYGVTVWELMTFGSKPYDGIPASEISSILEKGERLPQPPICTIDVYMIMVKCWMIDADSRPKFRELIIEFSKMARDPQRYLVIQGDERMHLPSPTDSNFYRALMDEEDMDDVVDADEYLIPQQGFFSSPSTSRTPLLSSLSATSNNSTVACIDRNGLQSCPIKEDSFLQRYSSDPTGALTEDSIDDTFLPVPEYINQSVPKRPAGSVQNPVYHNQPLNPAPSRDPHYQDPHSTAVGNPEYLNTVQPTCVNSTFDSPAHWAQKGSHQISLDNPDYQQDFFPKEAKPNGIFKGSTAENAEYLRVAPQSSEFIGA

| IC50 [1] | IC50 (B-Raf (V600E)) | IC50 (EGFR L858R kinase domain) | IC50 (WT EGFR kinase domain) | SMILES |
| --- | --- | --- | --- | --- |
| 813 nM | 27 nM | 292 nM | 249 nM | O=C1CCc2c(Oc3ccc4c(c3)[C@H]3[C@H](NC(=O)c5ccc(CN6CCN(CC(F)(F)F)CC6)c(C(F)(F)F)c5)[C@H]3O4)ccnc2N1 [Compound 1.2] |
| – | 1.7 nM | – | – | CCN1CCN(Cc2cc(F)cc(C(=O)N[C@@H]3[C@H]4Oc5ccc(Oc6ccnc7c6CCC(=O)N7)cc5[C@@H]34)c2)CC1 [Compound 1.6] |
| 18 nM | 5.9 nM | 0.57 nM | 1.28 nM | CN1CCN(Cc2ccc(C(=O)N[C@@H]3[C@H]4Oc5ccc(Oc6ccnc7c6CCC(=O)N7)cc5[C@@H]34)cc2)CC1 [Compound 1.11] |
| 47 nM | 86 nM | 11 nM | 59 nM | C[C@@H]1CN(Cc2ccc(C(=O)N[C@@H]3[C@H]4Oc5ccc(Oc6ccnc7c6CCC(=O)N7)cc5[C@@H]34)cc2C(F)(F)F)C[C@H](C)O1 [Compound 1.13] |
| – | 5.7 nM | – | – | CCN1CCN(Cc2ccc(C(=O)N[C@@H]3[C@H]4Oc5ccc(Oc6ccnc7c6CCC(=O)N7)cc5[C@@H]34)cc2Cl)CC1 [Compound 1.18] |
| 1.1 nM | 5.4 nM | 0.27 nM | 0.55 nM | CCN1CCN(Cc2ccc(C(=O)N[C@@H]3[C@H]4Oc5ccc(Oc6ccnc7c6CCC(=O)N7)cc5[C@@H]34)cc2Br)CC1 [Compound 1.19] |
| 3 nM | 8.8 nM | 0.28 nM | 1.3 nM | CN1CCN(Cc2ccc(C(=O)N[C@@H]3[C@H]4Oc5ccc(Oc6ccnc7c6CCC(=O)N7)cc5[C@@H]34)cc2F)CC1 [Compound 1.21] |
| 0.47 nM | 4.8 nM | 0.23 nM | 0.8 nM | CN1CCN(Cc2ccc(C(=O)N[C@@H]3[C@H]4Oc5ccc(Oc6ccnc7c6CCC(=O)N7)cc5[C@@H]34)cc2Cl)CC1 [Compound 1.22] |
| 0.52 nM | 5.4 nM | 0.24 nM | 1.1 nM | CN1CCN(Cc2ccc(C(=O)N[C@@H]3[C@H]4Oc5ccc(Oc6ccnc7c6CCC(=O)N7)cc5[C@@H]34)cc2Br)CC1 [Compound 1.23] |
| 885 nM | – | 287 nM | 809 nM | CCCCCCCCCCCC(=O)N[C@@H]1[C@H]2Oc3ccc(Oc4ccnc5c4CCC(=O)N5)cc3[C@@H]12 [Compound 1.28] |
| 2.7 nM | – | 0.46 nM | 0.69 nM | C[C@@H]1CN(Cc2ccc(C(=O)N[C@@H]3[C@H]4Oc5ccc(Oc6ccnc7c6CCC(=O)N7)cc5[C@@H]34)cc2C(F)(F)F)CCN1 [Compound 1.30] |
| 119 nM | 11 nM | 29 nM | 254 nM | CN1CCN(Cc2ccc(C(=O)N[C@H]3[C@@H]4Oc5ccc(Oc6ccnc7c6CCC(=O)N7)cc5[C@H]34)cc2C(F)(F)F)CC1 [Compound 1.34] |
| 5.3 nM | 16 nM | 0.91 nM | 1.7 nM | CN(C)[C@@H]1CCCN(c2ccc(C(=O)N[C@@H]3[C@H]4Oc5ccc(Oc6ccnc7c6CCC(=O)N7)cc5[C@@H]34)cc2C(F)(F)F)C1 [Compound 1.48] |
| 25 nM | 11 nM | 7.1 nM | 6.3 nM | CCN1CCN(c2ccc(C(=O)N[C@@H]3[C@H]4Oc5ccc(Oc6ccnc7c6CCC(=O)N7)cc5[C@@H]34)cc2C(F)(F)F)CC1 [Compound 1.50] |
| 0.4 nM | 18 nM | 0.35 nM | 2.2 nM | CCN1CCN(Cc2ccc(C(=O)NC3C4Oc5c(C)cc(Oc6ccnc7c6CCC(=O)N7)cc5C34)cc2C(F)(F)F)CC1 (stereo not shown) [Compound 1.55, 4-((4-ethylpiperazin-1-yl)methyl)-N-(3-methyl-5-((7-oxo-5,6,7,8-tetrahydro-1,8-naphthyridin-4-yl)oxy)-1a,6b-dihydro-1H-cyclopropa[b]benzofuran-1-yl)-3-(trifluoromethyl)benzamide] |
| 0.47 nM | 21 nM | 0.4 nM | 2.5 nM | Cc1cc(Oc2ccnc3c2CCC(=O)N3)cc2c1OC1C(NC(=O)c3ccc(CN4CCN(C)CC4)c(C(F)(F)F)c3)C21 (stereo not shown) [Compound 1.56] |
| 3.1 nM | 6.4 nM | 0.5 nM | 1.5 nM | CCN1CCN(Cc2ccc(C(=O)N[C@@H]3[C@H]4Oc5ccc(Oc6ccnc7c6CCC(=O)N7)cc5[C@@H]34)cc2C)CC1 [Compound 1.57, 4-((4-ethylpiperazin-1-yl)methyl)-3-methyl-N-((1S,1aS,6bS)-5-((7-oxo-5,6,7,8-tetrahydro-1,8-naphthyridin-4-yl)oxy)-1a,6b-dihydro-1H-cyclopropa[b]benzofuran-1-yl)benzamide] |
| 1.8 nM | 5.5 nM | 0.31 nM | 1.2 nM | Cc1cc(C(=O)N[C@@H]2[C@H]3Oc4ccc(Oc5ccnc6c5CCC(=O)N6)cc4[C@@H]23)ccc1CN1CCN(C)CC1 [Compound 1.58] |
| 6.2 nM | 1 nM | 4.8 nM | 19 nM | Cc1cc(C(=O)N[C@@H]2[C@H]3Oc4ccc(Oc5ccnc6c5CCC(=O)N6)cc4[C@@H]23)ccc1CO [Compound 1.59, 4-(hydroxymethyl)-3-methyl-N-((1S,1aS,6bS)-5-((7-oxo-5,6,7,8-tetrahydro-1,8-naphthyridin-4-yl)oxy)-1a,6b-dihydro-1H-cyclopropa[b]benzofuran-1-yl)benzamide] |
| 2550 nM | 1.5 nM | 949 nM | 3450 nM | O=C1CCc2c(Oc3ccc4c(c3)[C@H]3[C@H](NC(=O)Cc5cccc(C(F)(F)F)c5)[C@H]3O4)ccnc2N1 [Compound 1.60] |
| 237 nM | 1.5 nM | 76 nM | 132 nM | O=C1CCc2c(Oc3ccc4c(c3)[C@H]3[C@H](NC(=O)c5ccnc(C(F)(F)F)c5)[C@H]3O4)ccnc2N1 [Compound 1.61] |
| 114 nM | 1.3 nM | 28 nM | 42 nM | O=C1CCc2c(Oc3ccc4c(c3)[C@H]3[C@H](NC(=O)c5cncc(C(F)(F)F)c5)[C@H]3O4)ccnc2N1 [Compound 1.62] |
| 234 nM | 2.5 nM | 296 nM | 1140 nM | O=C1CCc2c(Oc3ccc4c(c3)[C@H]3[C@H](NC(=O)c5cccc(C(F)(F)F)n5)[C@H]3O4)ccnc2N1 [Compound 1.63] |
| 0.46 nM | 12 nM | < 0.25 nM | 1.1 nM | CCN1CCC(Oc2ccc(C(=O)N[C@@H]3[C@H]4Oc5ccc(Oc6ccnc7c6CCC(=O)N7)cc5[C@@H]34)cc2C(F)(F)F)CC1 [Compound 1.64] |
| 11 nM | 8.1 nM | 1.1 nM | 1.9 nM | CC1CN(Cc2ccc(C(=O)N[C@@H]3[C@H]4Oc5ccc(Oc6ccnc7c6CCC(=O)N7)cc5[C@@H]34)cc2C(F)(F)F)CC(C)N1 (stereo partly drawn) [Compound 1.65, 4-((3,5-dimethylpiperazin-1-yl)methyl)-N-((1S,1aS,6bS)-5-((7-oxo-5,6,7,8-tetrahydro-1,8-naphthyridin-4-yl)oxy)-1a,6b-dihydro-1H-cyclopropa[b]benzofuran-1-yl)-3-(trifluoromethyl)benzamide] |
| 81 nM | 3.6 nM | 13 nM | 9.3 nM | CN(C)Cc1cc(C(=O)N[C@@H]2[C@H]3Oc4ccc(Oc5ccnc6c5CCC(=O)N6)cc4[C@@H]23)cc(C(F)(F)F)c1 [Compound 1.66] |
| 1410 nM | 0.6 nM | 182 nM | 385 nM | CCCCCC(=O)N[C@@H]1[C@H]2Oc3ccc(Oc4ccnc5c4CCC(=O)N5)cc3[C@@H]12 [Compound 1.67] |
| 95 nM | 0.77 nM | 71 nM | 98 nM | CCCCCCC(=O)N[C@@H]1[C@H]2Oc3ccc(Oc4ccnc5c4CCC(=O)N5)cc3[C@@H]12 [Compound 1.68] |
| 782 nM | 2 nM | 116 nM | 118 nM | CCCCCCCC(=O)N[C@@H]1[C@H]2Oc3ccc(Oc4ccnc5c4CCC(=O)N5)cc3[C@@H]12 [Compound 1.69] |
| – | 13 nM | – | – | CN1C(C)(C)CC(Oc2ccc(C(=O)N[C@@H]3[C@H]4Oc5ccc(Oc6ccnc7c6CCC(=O)N7)cc5[C@@H]34)cc2C(F)(F)F)CC1(C)C [Compound 1.77, N-((1S,1aS,6bS)-5-((7-oxo-5,6,7,8-tetrahydro-1,8-naphthyridin-4-yl)oxy)-1a,6b-dihydro-1H-cyclopropa[b]benzofuran-1-yl)-4-((1,2,2,6,6-pentamethylpiperidin-4-yl)oxy)-3-(trifluoromethyl)benzamide] |
